# Test results from article PMC11054303, “Design and Synthesis of Novel N-Benzylidene Derivatives of 3-Amino-4-imino-3,5-dihydro-4H-chromeno[2,3-d]pyrimidine under Microwave, In Silico ADME Predictions, In Vitro Antitumoral Activities and In Vivo Toxicity” (Pharmaceuticals, 2024).
# Columns and labels:
# [1] = system: Huh7 D12; assay: Antiproliferative assay, Huh7 D12; assay type: cell-based, human; settings: for IC50: Homo sapiens, Huh-7D12, 48 h incubation, average of three assays, standard error ± 0.5 μM; for Selectivity Index (SI) Huh7 D12: SI = IC50 fibroblasts/IC50 on Huh7 D12
# Description: (§1) The potential antiproliferative activity of these novel 3-(N-phenylmethyliden)amino-4-imino-3,5-dihydro-4H-chromeno[2,3-d]pyrimidine 10(a-i) and 10-(N-phenylmethyliden)amino-11-imino-11H-naphto[1′,2′:5,6]pyrano[2,3-d]pyrimidine 10(j-l) was evaluated in a panel of eight tumoral cell lines and in diploid skin fibroblasts used as normal cell lines for control. For these antitumor assays, chosen cell lines represent diverse types of human cancer, which are, respectively, human hepatocellular carcinoma (Huh7 D12), human colon adenocarcinoma (Caco2), human breast adenocarcinoma (MDA-MB231), MDA-MB468 for human breast carcinoma which correspond to the Triple Negative Breast Cancer (TNBC), human colon carcinoma (HCT116), PC3 as cell line initiated from bone metastasis of grade IV prostatic adenocarcinoma from a person, MCF7 as breast cancer line isolated from a person and PANC1, as human pancreatic cancer cell line. The potential antiproliferative activity was preliminarily evaluated in vitro at a 25 μM single dose.
# (§2) The IC50 was calculated from the full dose-response curve and used as a parameter for the antiproliferative activity of the new compounds.
# (§3) Skin diploid fibroblastic cells were provided by BIOPREDIC International Company (Rennes, France). Huh-7D12 (Ref ECACC: 01042712), Caco2 (Ref ECACC: 86010202), MDA-MB-231 (Ref ECACC: 92020424), MDA-MB-468, HCT-116 (Ref ECACC: 91091005), PC3 (Ref ECACC: 90112714), and MCF7 cell lines were obtained from the ECACC collection. PANC1 cell lines, a generous gift of LBAI Inserm 1227 (Brest, France). Cells were grown according to ECACC recommendations in DMEM for Huh-D12, MDA-MB-231, MDA-MB-468 and fibroblast, in EMEM for Caco2, in McCoy’s for HCT-116 and RPMI for PC3 at 37 °C and 5% CO2. All culture media with 10% of FBS, 1% of penicillin-streptomycin and 2 mM glutamine.
# (§4) Chemicals were solubilized in DMSO at a concentration of 10 mM (stock solution) and diluted in a culture medium to the desired final concentrations. […] The toxicity test of the chemicals on these cells was as follows: 2 × 10^3 cells for HCT-116 cells or 4 × 10^3 for the other cells were seeded in 96-multi-well plates in triplicate and left for 24 h for attachment, spreading and growing. Then, cells were exposed for 48 h to increasing concentrations of chemicals, ranging from 0.1 μM to 25 μM, in a final volume of 120 μL of culture medium. After 48 h of treatment, cells were washed in PBS and fixed in a cooled 90% ethanol/5% acetic acid solution for 20 min. The nuclei were stained with Hoechst 3342 (B2261 Merck Sigma-Aldrich) and counted. Image acquisition and analysis were performed using automated imaging analysis with a Cellomics Arrayscan VTI/HCS Reader (Thermo/Scientific, Waltham, MA, USA). The survival percentages were calculated as the percentage of cell number after chemical treatment over cell number after DMSO treatment. The IC50 was graphically determined.
# [2] = Antiproliferative assay, Caco2; assay type: cell-based, human; settings: human, Caco-2; SI = IC50 fibroblasts/IC50 on Caco2; read-out: Selectivity Index (SI) Caco2
# Description: as §1, §2, §3, §4
# [3] = system: Caco2; assay: Antiproliferative assay, Caco2; assay type: cell-based, human; settings: Homo sapiens, Caco-2; 48 h incubation; average of three assays, standard error ± 0.5 μM
# Description: as §1, §2, §3, §4
# [4] = system: MDA MB231; assay: Antiproliferative assay, MDA MB231; assay type: cell-based, human; settings: for IC50: Homo sapiens, MDA-MB-231, 48 h incubation, average of three assays, standard error ± 0.5 μM; for Selectivity Index (SI) MDA MB231: SI = IC50 fibroblasts/IC50 on MDA MB231
# Description: as §1, §2, §3, §4
# [5] = system: MDA MB468; assay: Antiproliferative assay, MDA MB468; assay type: cell-based, human; settings: for IC50: Homo sapiens, MDA-MB-468, 48 h incubation, average of three assays, standard error ± 0.5 μM; for Selectivity Index (SI) MDA MB468: SI = IC50 fibroblasts/IC50 on MDA MB468
# Description: as §1, §2, §3, §4
# [6] = system: HCT 116; assay: Antiproliferative assay, HCT 116; assay type: cell-based, human; settings: for IC50: Homo sapiens, HCT-116, 48 h incubation, average of three assays, standard error ± 0.5 μM; for Selectivity Index (SI) HCT 116: SI = IC50 fibroblasts/IC50 on HCT 116
# Description: as §1, §2, §3, §4
# [7] = system: PC3; assay: Antiproliferative assay, PC3; assay type: cell-based, human; settings: for IC50: Homo sapiens, PC-3, 48 h incubation, average of three assays, standard error ± 0.5 μM; for Selectivity Index (SI) PC3: SI = IC50 fibroblasts/IC50 on PC3
# Description: as §1, §2, §3, §4
# [8] = system: MCF7; assay: Antiproliferative assay, MCF7; assay type: cell-based, human; settings: for IC50: Homo sapiens, MCF7, 48 h incubation, average of three assays, standard error ± 0.5 μM; for Selectivity Index (SI) MCF7: SI = IC50 fibroblasts/IC50 on MCF7
# Description: as §1, §2, §3, §4
# [9] = system: PANC1; assay: Antiproliferative assay, PANC1; assay type: cell-based, human; settings: for IC50: Homo sapiens, PANC-1, 48 h incubation, average of three assays, standard error ± 0.5 μM; for Selectivity Index (SI) PANC1: SI = IC50 fibroblasts/IC50 on PANC1
# Description: as §1, §2, §3, §4
# [10] = system: Fibroblasts; assay: Antiproliferative assay, diploid skin fibroblasts (normal cells); assay type: cell-based; settings: for IC50: Fibroblast, 48 h incubation, average of three assays, standard error ± 0.5 μM
# Description: as §1, §2, §3, §4
# [11] = system: tumor cell lines; assay: Antiproliferative assay, panel of tumoral cell lines; assay type: cell-based; settings: Homo sapiens, 48 h, summary over tumoral cell lines of Table 3, 48 h; read-out: IC50 on tumor cell lines (span over the panel)
# Description: as §1, §2, §3, §4
# [12] = system: zebrafish Danio rerio embryos; assay: Zebrafish embryo toxicity assay (Zebratox, FET)
# Description: Fertilized eggs at 24–48 h post-fertilization (hpf) were selected and transferred to a 96-well plate (1 embryo/well). […] DMSO (0.6%) was used as vehicle control for the test compounds. The exposure duration continued up to 72 hpf because it is the endpoint of embryonic development [41]. The dead embryos were eliminated, and the fertilized eggs were imaged at 0, 24, 48 and 72 hpf.
# Eggs were collected 2 h post-fertilization (hpf) and kept in glass Petri dishes containing water for subsequent examination under a binocular microscope to confirm fertilization. […] Chemical treatments were performed by adding DMSO alone (negative control), or test molecule. These experiments were performed in four technical replicates.
# The experiments were performed using a Zeiss inverted fluorescent microscope (Observer Z1). The zebrafish toxicological test (Zebratox) was realized as follows: the 24 h post-fertilization embryos were arrayed by hand with one embryo per well in black-walled 96-well microplates for fluorescence assays (Perkin Elmer, Waltham, MA, USA). The embryos were treated before hatching from 0 to 72 h post-fertilization. The 20 mM DMSO stock chemicals were diluted in fish water and added to the wells at final concentrations from 0.0 2µM to 5 μM. The negative control (0.25% DMSO) was added to each replicate plate. The experiments were realized in triplicate in three independent plates. […] The zebrafish fertilized eggs were provided by the ImPACcell-Biosit Zebrafish facilities (Rennes, France).
IC50 [1] [µM],IC50 [3] [µM],IC50 [6] [µM],IC50 [7] [µM],IC50 [8] [µM],IC50 [9] [µM],IC50 [11] [µM],Structure (SMILES),Selectivity Index (SI) Huh7 D12 [1],selectivity ratio at 48 h [2],IC50 [4] [µM],Selectivity Index (SI) MDA MB231 [4],IC50 [5] [µM],Selectivity Index (SI) MDA MB468 [5],Selectivity Index (SI) HCT 116 [6],Selectivity Index (SI) PC3 [7],Selectivity Index (SI) MCF7 [8],Selectivity Index (SI) PANC1 [9],"effect on fibroblasts (healthy skin cell), in words [10]",IC50 [10] [µM],further results
11,10,11,11,11,17,1 to 25,"CN(C)c1ccc(/C=N/n2cnc3c(c2=N)Cc2ccccc2O3)cc1 [10d, (3E) 3-N-(4-Dimethylaminophenylmethylidene)amino-4-imino-3,5-dihydro-4H-chromeno[2,3-d]pyrimidine]",1.27,1.4,11,1.27,11,1.27,1.27,1.27,1.27,0.82,cytotoxic on fibroblasts,14,
> 25,> 25,> 25,> 25,> 25,> 25,,CCN(CC)c1ccc2c(c1)Oc1ncn(/N=C/c3ccccc3)c(=N)c1C2 [10c],,,> 25,,> 25,,,,,,,> 25,
> 25,> 25,> 25,> 25,> 25,> 25,,CCN(CC)c1ccc2c(c1)Oc1ncn(/N=C/c3ccc(N(C)C)cc3)c(=N)c1C2 [10a],,,> 25,,> 25,,,,,,,> 25,
6,10,24,16,10,,1 to 25,"COc1cccc2c1Oc1ncn(/N=C/c3ccc(N(C)C)cc3)c(=N)c1C2 [10g, (3E) 3-N-(4-Dimethylaminophenylmethylidene)amino-4-imino-9-methoxy-3,5-dihydro-4H-chromeno[2,3-d]pyrimidine]",1.83,1.1,> 25,< 0.44,18,0.61,0.46,0.69,1.1,,cytotoxic on fibroblasts,11,
6,10,24,16,10,,1 to 25,"CN(C)c1ccc(/C=N/n2cnc3c(c2=N)Cc2c(ccc4ccccc24)O3)cc1 [10j, (10E) 10-N-(4-Dimethylaminophenylmethylidene)amino-11-imino-11H-naphto[1′,2′:5,6]pyrano[2,3-d]pyrimidine]",1.83,1.1,> 25,< 0.44,18,0.61,0.46,0.69,1.1,,cytotoxic on fibroblasts,11,

# The next lines start with the compound.
Structure (SMILES),IC50 [1] [µM],IC50 [3] [µM],IC50 [6] [µM],IC50 [7] [µM],IC50 [8] [µM],IC50 [9] [µM],IC50 [11] [µM],Selectivity Index (SI) Huh7 D12 [1],selectivity ratio at 48 h [2],IC50 [4] [µM],Selectivity Index (SI) MDA MB231 [4],IC50 [5] [µM],Selectivity Index (SI) MDA MB468 [5],Selectivity Index (SI) HCT 116 [6],Selectivity Index (SI) PC3 [7],Selectivity Index (SI) MCF7 [8],Selectivity Index (SI) PANC1 [9],"effect on fibroblasts (healthy skin cell), in words [10]",IC50 [10] [µM],further results
CCN(CC)c1ccc2c(c1)Oc1ncn(/N=C/c3ccccc3O)c(=N)c1C2 [10b],> 25,> 25,> 25,> 25,> 25,> 25,,,,> 25,,> 25,,,,,,,> 25,
"N=c1c2c(ncn1/N=C/c1ccccc1O)Oc1ccc3ccccc3c1C2 [10k, (10E) 10-N-(2-Hydroxyphenylmethylidene)amino-11-imino-11H-naphto[1′,2′:5,6]pyrano[2,3-d]pyrimidine]",1.5,1.2,0.6,0.4,1.2,1.6,1 to 25,1,1.25,1.1,1.34,1.8,0.83,2.5,3.75,1.25,0.94,cytotoxic on fibroblasts,1.5,
"C#Cc1cccc(Nc2ncnc3cc(OCCOC)c(OCCOC)cc23)c1 [erlotinib, reference compound]",,,,,,,,,,,,,,,,,,,,"toxicity on zebrafish embryos ([12]; 1 μM dose, 72 hpf): no toxicity; hatching of the embryos ([12]; treatment for 48 and 72 hpf): complete hatching"
"COc1cccc2c1C(=O)c1c(O)c3c(c(O)c1C2=O)C[C@@](O)(C(=O)CO)C[C@@H]3O[C@H]1C[C@H](N)[C@H](O)[C@H](C)O1 [Doxorubicin, reference compound]",0.06,0.03,0.07,0.07,0.09,,,0.16,0.33,0.02,0.50,0.03,0.33,0.14,0.14,0.11,,,0.01,
"N=c1c2c(ncn1/N=C/c1ccccc1O)Oc1ccccc1C2 [10e, (3E) 3-N-(2-Hydroxyphenylmethylidene)amino-4-imino-3,5-dihydro-4H-chromeno[2,3-d]pyrimidine]",1.7,2,0.3,0.15,1.7,2.2,1 to 25,0.94,0.8,1.5,1.07,2.5,0.64,5.33,10.67,0.94,0.73,cytotoxic on fibroblasts,1.6,
